For this test, the system named is L1210 leukemia ip in BDF1 mice, survival T/C. Briefly: NCI In Vivo Anticancer Drug Screen. Data for tumor model L1210 Leukemia (intraperitoneal) in B6D2F1 (BDF1) mice. The note with it: endpoint: mean survival time, higher = longer survival. A digest of the protocol: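 Transplantable tumor model; survival measured in treated vs vehicle control mice. Value = treated/control.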

[1] abbreviates: dose: 100.0 mg/kg/injection, schedule: Q01DX009 (ip), vehicle: saline with Tween-80.
Setting [2] is: dose: 200.0 mg/kg/injection, schedule: Q01DX009 (ip), vehicle: saline with Tween-80.
Setting [3] is: dose: 100.0 mg/kg/injection, schedule: Q01DX001 (ip), vehicle: saline.
The mark [4] stands for this setting: dose: 200.0 mg/kg/injection, schedule: Q01DX001 (ip), vehicle: saline.
[5] abbreviates: dose: 200.0 mg/kg/injection, schedule: Q04DX003 (ip), vehicle: acetone.
Setting [6] is: dose: 400.0 mg/kg/injection, schedule: Q01DX001 (ip), vehicle: saline.
Where [7] appears, read: dose: 100.0 mg/kg/injection, schedule: Q01DX009 (ip), vehicle: Klucel (hydroxypropylcellulose) (HPC).
The mark [8] stands for this setting: dose: 100.0 mg/kg/injection, schedule: Q04DX003 (ip), vehicle: Klucel (hydroxypropylcellulose) (HPC).
[9] abbreviates: dose: 200.0 mg/kg/injection, schedule: Q01DX009 (ip), vehicle: Klucel (hydroxypropylcellulose) (HPC).
Setting [10] is: dose: 200.0 mg/kg/injection, schedule: Q04DX003 (ip), vehicle: Klucel (hydroxypropylcellulose) (HPC).
Where [11] appears, read: dose: 400.0 mg/kg/injection, schedule: Q01DX009 (ip), vehicle: Klucel (hydroxypropylcellulose) (HPC).
[12] abbreviates: dose: 400.0 mg/kg/injection, schedule: Q04DX003 (ip), vehicle: Klucel (hydroxypropylcellulose) (HPC).
Where [13] appears, read: dose: 100.0 mg/kg/injection, schedule: Q01DX001 (ip), vehicle: Klucel (hydroxypropylcellulose) (HPC).
[14] abbreviates: dose: 200.0 mg/kg/injection, schedule: Q01DX001 (ip), vehicle: Klucel (hydroxypropylcellulose) (HPC).
[15] abbreviates: dose: 400.0 mg/kg/injection, schedule: Q01DX001 (ip), vehicle: Klucel (hydroxypropylcellulose) (HPC).

Several values for one entry are separate records, joined by “and”; a condition that tells them apart may be missing. Identical values can stand only once. Inconclusive results and toxic doses are left out.

As for `CCCCCCCCCCCCCCCCn1cnc2c(=S)nc[nH]c21`, the T/C (dose: 12.5 mg/kg/injection, schedule: Q01DX005 (ip), vehicle: other) is 102 % of control; the T/C (dose: 25.0 mg/kg/injection, schedule: Q01DX005 (ip), vehicle: other) was 96 % of control; the T/C (dose: 50.0 mg/kg/injection, schedule: Q01DX005 (ip), vehicle: other) is 104 % of control; the T/C (dose: 100.0 mg/kg/injection, schedule: Q01DX005 (ip), vehicle: other) was 104 % of control; the T/C (dose: 200.0 mg/kg/injection, schedule: Q01DX005 (ip), vehicle: other) was 96 % of control.

With `CCOc1ccc(NC(=S)NC(=O)c2ccccc2F)cc1`, the T/C is, setting by setting: (dose: 25.0 mg/kg/injection, schedule: Q01DX009 (ip), vehicle: saline with Tween-80) 92 % of control; (dose: 50.0 mg/kg/injection, schedule: Q01DX009 (ip), vehicle: saline with Tween-80) 104 % of control; under setting [1], 87 % of control; under setting [2], 87 % of control.

For the compound `CC(OC(=O)c1ccccc1)C(N)=S` (centres undefined), the T/C under setting [3] was 102 % of control; the T/C (dose: 100.0 mg/kg/injection, schedule: Q01DX009 (ip), vehicle: acetone) is 93 % of control; the T/C (dose: 100.0 mg/kg/injection, schedule: Q04DX003 (ip), vehicle: acetone) was 101 % of control; the T/C under setting [4] is 93 % of control; the T/C (dose: 200.0 mg/kg/injection, schedule: Q01DX009 (ip), vehicle: acetone) is 95 % of control; the T/C under setting [5] was 102 % of control. Besides, the T/C runs as follows: under setting [6], 103 % of control; (dose: 400.0 mg/kg/injection, schedule: Q01DX009 (ip), vehicle: acetone) 96 % of control; (dose: 400.0 mg/kg/injection, schedule: Q04DX003 (ip), vehicle: acetone) 102 % of control.

In the case of `CCCCCC(C)NC(=O)N(CCCl)N=O` (centres undefined) (tested in a mixture with another compound), the T/C by setting is: (dose: 12.0 mg/kg/injection, schedule: Q01DX001 (ip), vehicle: saline with Tween-80) 109 % of control; (dose: 18.0 mg/kg/injection, schedule: Q01DX001 (ip), vehicle: saline with Tween-80) 116 % of control; (dose: 27.0 mg/kg/injection, schedule: Q01DX001 (ip), vehicle: saline with Tween-80) 169 % of control; (dose: 40.0 mg/kg/injection, schedule: Q01DX001 (ip), vehicle: saline with Tween-80) 151 % of control; (dose: 60.0 mg/kg/injection, schedule: Q01DX001 (ip), vehicle: saline with Tween-80) 200 % of control; (dose: 90.0 mg/kg/injection, schedule: Q01DX001 (ip), vehicle: saline with Tween-80) 210 % of control. For the same compound, the T/C (dose: 133.0 mg/kg/injection, schedule: Q01DX001 (ip), vehicle: saline with Tween-80) is 88 % of control.

`CN1C(CCl)Nc2cc(Cl)c(S(N)(=O)=O)cc2S1(=O)=O` (centres undefined): the T/C runs as follows: under setting [3], 95 % of control; under setting [4], 90 % of control; under setting [6], 96 % of control.

On to `OC(C/C=C/c1ccccc1)c1ccccc1` (centres undefined), for which the T/C by setting is: (dose: 50.0 mg/kg/injection, schedule: Q01DX009 (ip), vehicle: Klucel (hydroxypropylcellulose) (HPC)) 91 % of control; under setting [7], 97 % of control.

Consider `O=C1CCCCC1Cc1ccccc1` (centres undefined), for which the T/C under setting [5] was 95 % of control.

Take `CCCCCCCCCCC(=O)N1CCOCC1`: the T/C (dose: 12.5 mg/kg/injection, schedule: Q04DX003 (ip), vehicle: saline with Tween-80) is 98 % of control; the T/C (dose: 25.0 mg/kg/injection, schedule: Q04DX003 (ip), vehicle: saline with Tween-80) is 95 % of control; the T/C (dose: 50.0 mg/kg/injection, schedule: Q04DX003 (ip), vehicle: saline with Tween-80) is 101 % of control.

`O=C1N(c2nncs2)CCN1[N+](=O)[O-]`: the T/C by setting is: under setting [7], 95 % of control; under setting [8], 95 % of control; under setting [9], 98 % of control; under setting [10], 98 % of control; under setting [11], 103 % of control; under setting [12], 102 % of control.

In the case of `Cc1nc2ccccc2nc1N1CCCC1`, the T/C is 101 % of control (dose: 111.0 mg/kg/injection, schedule: Q01DX Z (ip), vehicle: methylcellulose (MC)); 92 % of control (dose: 166.0 mg/kg/injection, schedule: Q01DX Z (ip), vehicle: methylcellulose (MC)); 114 % of control (dose: 250.0 mg/kg/injection, schedule: Q01DX Z (ip), vehicle: methylcellulose (MC)).

For `CCCCCCCCCN1CCCC(OC(=O)N(C)C)C1` (centres undefined), the T/C was 103 % of control (dose: 25.0 mg/kg/injection, schedule: Q04DX002 (ip), vehicle: saline); 103 % of control (dose: 50.0 mg/kg/injection, schedule: Q04DX002 (ip), vehicle: saline); 100 % of control (dose: 100.0 mg/kg/injection, schedule: Q04DX002 (ip), vehicle: saline).

As to `CNCC(O)c1cccc(O)c1` (centres undefined), the T/C reads like this: (dose: 1.56 mg/kg/injection, schedule: Q01DX009 (ip), vehicle: saline) 94 % of control; (dose: 3.12 mg/kg/injection, schedule: Q01DX009 (ip), vehicle: saline) 98 % of control; (dose: 3.12 mg/kg/injection, schedule: Q04DX003 (ip), vehicle: saline) 109 % of control; (dose: 6.25 mg/kg/injection, schedule: Q01DX009 (ip), vehicle: saline) 94 % of control; (dose: 6.25 mg/kg/injection, schedule: Q04DX003 (ip), vehicle: saline) 104 % of control; (dose: 12.5 mg/kg/injection, schedule: Q01DX009 (ip), vehicle: saline) 122 % of control. The T/C is, setting by setting: (dose: 12.5 mg/kg/injection, schedule: Q04DX003 (ip), vehicle: saline) 96 % of control; (dose: 25.0 mg/kg/injection, schedule: Q01DX009 (ip), vehicle: saline) 100 % of control; (dose: 25.0 mg/kg/injection, schedule: Q04DX003 (ip), vehicle: saline) 113 % of control.

In the case of `COC(=O)C1CCC(NC(=O)N(CCCl)N=O)CC1` (centres undefined), the T/C runs as follows: (dose: 13.0 mg/kg/injection, schedule: Q01DX001 (ip), vehicle: Klucel (hydroxypropylcellulose) (HPC)) 212 % of control and 188 % of control; (dose: 20.0 mg/kg/injection, schedule: Q01DX001 (ip), vehicle: Klucel (hydroxypropylcellulose) (HPC)) 270 % of control and 283 % of control; (dose: 30.0 mg/kg/injection, schedule: Q01DX001 (ip), vehicle: Klucel (hydroxypropylcellulose) (HPC)) 283 % of control; (dose: 44.0 mg/kg/injection, schedule: Q01DX001 (ip), vehicle: Klucel (hydroxypropylcellulose) (HPC)) 248 % of control and 282 % of control; (dose: 67.0 mg/kg/injection, schedule: Q01DX001 (ip), vehicle: Klucel (hydroxypropylcellulose) (HPC)) 266 % of control; under setting [13], 104 % of control.

On to `O=C1c2ccccc2C(=O)N1CNc1ccccc1`, for which the T/C under setting [7] was 103 % of control; the T/C under setting [8] was 104 % of control; the T/C under setting [9] was 98 % of control; the T/C under setting [10] is 102 % of control; the T/C under setting [11] was 93 % of control; the T/C under setting [12] was 94 % of control.

With `O=C1CSCc2nc3ccccc3n21`, the T/C is 97 % of control under setting [1]; 106 % of control (dose: 100.0 mg/kg/injection, schedule: Q04DX003 (ip), vehicle: saline with Tween-80); 100 % of control under setting [2]; 103 % of control (dose: 200.0 mg/kg/injection, schedule: Q04DX003 (ip), vehicle: saline with Tween-80); 100 % of control (dose: 400.0 mg/kg/injection, schedule: Q01DX009 (ip), vehicle: saline with Tween-80); 97 % of control (dose: 400.0 mg/kg/injection, schedule: Q04DX003 (ip), vehicle: saline with Tween-80).

On to `CS(=O)(=O)OC1C2(c3ccccc3)C=CCC1(c1ccccc1)C(c1ccccc1)=C2c1ccccc1` (centres undefined), for which the T/C is 98 % of control under setting [13], 101 % of control under setting [14] and 98 % of control under setting [15].

Turning to `COC(=O)c1ccccc1Cc1cccc2c(Cl)cccc12`, the T/C is 97 % of control under setting [13], 98 % of control under setting [14] and 106 % of control under setting [15].
